This note sets out measurements from patent publication US8058475B2, “Substituted cyclohexylmethyl compounds” (Gruenenthal GmbH, priority 2005, dated 2011).

The target in one series is human μ-opiate receptor (Homo sapiens, UniProt P35372). The series can be described thus: Affinity for the human μ-opiate receptor ([3H]-naloxone displacement, SPA, CHO-K1 membrane preparation). Particulars: for inhibition at 1 µM: read-out: μ-Opioid receptor, % inhibition [1 μM]; for Ki: read-out: μ-Opioid receptor, Ki. In kind it is binding.
In series [1] the target is T1, Noradrenaline (NA) reuptake (Rattus norvegicus, UniProt Q63380).
T1 construct: synaptosomes are freshly isolated from areas of rat brain; from tissue; host or cells: rat hypothalamus synaptosomes (P2 fraction)
The series can be described thus: Noradrenaline (NA) reuptake inhibition in rat brain synaptosomes (hypothalamus, P2 fraction). It is filed as biochemical. The method in brief:
(§1)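 Freshly isolated rat brain synaptosomes (P2 fraction, Gray–Whittaker method) used for uptake; for NA uptake the particles came from hypothalamus of male rats.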

In the next series the target is T2, Serotonin (5HT) reuptake (Rattus norvegicus, UniProt P31652).
T2 construct: synaptosomes are freshly isolated from areas of rat brain; from tissue; host or cells: rat brain synaptosomes (P2 fraction)
The series can be described thus: Serotonin (5HT) reuptake inhibition in rat brain synaptosomes (P2 fraction). In kind it is biochemical. Particulars: for inhibition at 10 µM: read-out: Serotonin reuptake, % inhibition [10 μM]. In outline:
as §1

A further series deals with mouse. The experiment in a line: In vivo studies of analgesia: tail-flick test in the mouse. Particulars: iv; for % maximum possible antinociceptive effect at 21.5 mg/kg: dose 21.5 mg/kg (i.v.); for % maximum possible antinociceptive effect at 10 mg/kg: dose 10 mg/kg (i.v.). The source says:
In vivo Studies of Analgesia: Tail-flick Test in the Mouse
The mice were each placed individually into a test cage and the base of the tail was exposed to the focused heat ray of an electric lamp (tail-flick type 50/08/1.bc, Labtec, Dr. Hess). The intensity of the lamp was adjusted so that the time from switching on of the lamp to the sudden twitching away of the tail (latency of pain) in untreated mice was from 3 to 5 seconds. Before administration of the solutions comprising the compound according to the invention, or of the particular comparison solutions, the mice were pre-tested twice in the course of five minutes and the mean of these measurements was calculated as the pre-test mean.
The solutions of the compound of the general formula I according to the invention and the comparison solutions were then administered intravenously.
Pain measurement was carried out in each case 10, 20, 40 and 60 minutes following the intravenous administration. The analgesic activity was determined as the increase in the latency of pain (% of the maximum possible antinociceptive effect) according to the following formula: [(T1−T0)/(T2−T0)]×100 where time T0 is the latency before administration, time T1 is the latency after administration of the active ingredient combination and time T2 is the maximum exposure time (12 seconds).
The in-depth study of analgesic activity was carried out in the tail-flick test in the mouse, as described above.

Where [2] appears, read: 1 μM test substance, inhibition of specific [3H]-naloxone binding.
The mark [3] stands for this setting: read-out: NA reuptake, % inhibition [10 μM].
Where [4] appears, read: read-out: Na reuptake, % inhibition [10 μM].

Structures can show the parent of a compound that is named as a salt. Where two headings read alike, the source gives them in different places.

T1 sequence (Q63380 1-617): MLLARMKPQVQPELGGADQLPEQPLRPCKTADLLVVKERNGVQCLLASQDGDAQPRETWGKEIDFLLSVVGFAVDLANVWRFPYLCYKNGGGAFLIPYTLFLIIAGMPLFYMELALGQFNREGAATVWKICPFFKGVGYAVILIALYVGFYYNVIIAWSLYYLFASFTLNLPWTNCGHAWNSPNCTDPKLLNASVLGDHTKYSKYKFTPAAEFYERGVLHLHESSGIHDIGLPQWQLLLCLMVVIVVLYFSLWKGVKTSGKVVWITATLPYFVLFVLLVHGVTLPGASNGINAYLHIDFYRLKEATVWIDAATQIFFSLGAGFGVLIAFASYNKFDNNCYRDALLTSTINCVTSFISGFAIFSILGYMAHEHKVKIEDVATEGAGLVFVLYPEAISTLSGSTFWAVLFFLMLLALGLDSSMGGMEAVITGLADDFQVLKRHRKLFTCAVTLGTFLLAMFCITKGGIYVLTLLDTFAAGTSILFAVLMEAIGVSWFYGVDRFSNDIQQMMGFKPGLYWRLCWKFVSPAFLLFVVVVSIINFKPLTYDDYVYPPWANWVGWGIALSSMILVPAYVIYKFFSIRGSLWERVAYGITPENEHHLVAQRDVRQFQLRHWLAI
T2 sequence (P31652 whole entry): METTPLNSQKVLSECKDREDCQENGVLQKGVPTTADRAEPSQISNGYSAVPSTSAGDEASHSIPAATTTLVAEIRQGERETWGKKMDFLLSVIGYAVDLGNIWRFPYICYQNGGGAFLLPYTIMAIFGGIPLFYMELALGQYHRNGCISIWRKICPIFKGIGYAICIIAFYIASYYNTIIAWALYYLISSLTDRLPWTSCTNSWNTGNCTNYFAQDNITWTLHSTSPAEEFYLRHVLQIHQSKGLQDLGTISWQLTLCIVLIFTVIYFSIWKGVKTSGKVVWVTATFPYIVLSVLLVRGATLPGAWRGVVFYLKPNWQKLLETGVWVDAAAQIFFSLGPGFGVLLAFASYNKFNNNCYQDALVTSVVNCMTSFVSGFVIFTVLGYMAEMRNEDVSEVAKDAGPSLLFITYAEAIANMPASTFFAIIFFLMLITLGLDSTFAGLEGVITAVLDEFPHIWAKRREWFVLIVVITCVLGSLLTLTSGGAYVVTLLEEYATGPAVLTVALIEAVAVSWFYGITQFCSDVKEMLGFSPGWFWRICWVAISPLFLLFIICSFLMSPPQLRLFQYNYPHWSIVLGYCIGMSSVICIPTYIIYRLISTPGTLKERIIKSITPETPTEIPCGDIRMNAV
Chain of human μ-opiate receptor (P35372 whole entry): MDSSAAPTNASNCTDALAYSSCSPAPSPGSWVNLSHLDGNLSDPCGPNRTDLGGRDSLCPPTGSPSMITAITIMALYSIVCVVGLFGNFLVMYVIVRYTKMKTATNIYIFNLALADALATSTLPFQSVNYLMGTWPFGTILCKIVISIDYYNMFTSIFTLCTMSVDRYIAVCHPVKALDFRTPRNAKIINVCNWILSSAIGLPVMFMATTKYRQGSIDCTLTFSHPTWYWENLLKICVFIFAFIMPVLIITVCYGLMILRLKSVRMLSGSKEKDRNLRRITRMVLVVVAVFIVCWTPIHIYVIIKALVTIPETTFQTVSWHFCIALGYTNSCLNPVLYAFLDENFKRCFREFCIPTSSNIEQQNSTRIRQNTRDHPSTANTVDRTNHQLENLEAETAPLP

Consider `CN(C)C(c1ccccc1)C1CCC(NCc2ccc(F)cc2)CC1` (stereo not drawn) [compound 91, 4-((dimethylamino)(phenyl)methyl)-N-(4-fluorobenzyl)cyclohexanamine hydrochloride], for which the inhibition at 1 µM at human μ-opiate receptor (setting [2]) amounted to 90%. Moreover, the Ki at human μ-opiate receptor came out at 8.1 nM. In addition, the inhibition at 10 µM in series [1] (setting [3]) was 93%; on Serotonin (5HT) reuptake, 76%. Also, the % maximum possible antinociceptive effect at 21.5 mg/kg in the series with mouse (read-out: Activity % MPE) is 90%.

Regarding `CC(=O)N(CCCCc1ccccc1)C1CCC(C(c2ccccc2)N(C)C)CC1` (stereo not drawn) [compound 98, N-(4-((dimethylamino)(phenyl)methyl)cyclohexyl)-N-(4-phenylbutyl)-acetamide hydrochloride], on human μ-opiate receptor, the inhibition at 1 µM was 104%. Moreover, the Ki in series [1] came out at 700 nM; on Serotonin (5HT) reuptake, 630 nM. Moreover, the inhibition at 10 µM turned out to be 95% in series [1] (setting [4]) and 74% on Serotonin (5HT) reuptake. In the series on mouse (read-out: Activity % MPE), the % maximum possible antinociceptive effect at 10 mg/kg came out at 100%.

`CN(C)C(c1ccccc1)C1CCC(O)(Cc2ccc(F)cc2)CC1` (stereo not drawn) [compound 148, 4-((dimethylamino)(phenyl)methyl)-1-(4-fluorobenzyl)cyclohexanol hydrochloride]: the inhibition at 1 µM at human μ-opiate receptor (setting [2]) came to 91%. Further, the inhibition at 10 µM in series [1] (setting [3]) was 97%. For the same compound, on Serotonin (5HT) reuptake, the inhibition constant (Ki) came out at 370 nM and the inhibition at 10 µM worked out at 90%. Moreover, in the series with mouse (read-out: Activity % MPE), the % maximum possible antinociceptive effect at 10 mg/kg was determined as 40%.

In the case of `CN(C)C(c1ccccc1)C1CCC(NC(=O)NCc2ccccc2)CC1` (stereo not drawn) [compound 79, 1-benzyl-3-(4-((dimethylamino)(phenyl)methyl)cyclohexyl)urea], on human μ-opiate receptor (setting [2]), the inhibition at 1 µM amounted to 103%. Moreover, the inhibition constant (Ki) came out at 8.3 nM on human μ-opiate receptor, 120 nM in series [1] and 91 nM on Serotonin (5HT) reuptake. Besides, the values for the inhibition at 10 µM (in series [1] (setting [3]); at Serotonin (5HT) reuptake) were 96% and 97%, respectively. Besides, the % maximum possible antinociceptive effect at 10 mg/kg in the series on mouse (read-out: Activity % MPE) stood at 76%.

As to `CN(C)C(c1ccccc1)C1CCC(NCCCCc2ccccc2)CC1` (stereo not drawn) [compound 87, 4-((dimethylamino)(phenyl)methyl)-N-(4-phenylbutyl)cyclohexanamine hydrochloride], the inhibition at 1 µM at human μ-opiate receptor (setting [2]) stood at 85%. For the same compound, the Ki at human μ-opiate receptor was found to be 3.7 nM. Moreover, the values for the inhibition at 10 µM (in series [1] (setting [3]); on Serotonin (5HT) reuptake) were 106% and 95%, respectively. Moreover, the % maximum possible antinociceptive effect at 10 mg/kg in the series on mouse (read-out: Activity % MPE) is 39%.

Turning to `CN(C)C(c1ccccc1)[C@H]1CC[C@H](CCc2ccccc2)CC1` (relative stereo) [compound 146, trans-N,N-dimethyl(4-phenethylcyclohexyl)(phenyl)methanamine hydrochloride], the inhibition at 1 µM on human μ-opiate receptor (setting [2]) turned out to be 97%. Moreover, the Ki turned out to be 600 nM in series [1] and 150 nM at Serotonin (5HT) reuptake. In addition, the inhibition at 10 µM was found to be 94% in series [1] (setting [3]) and 92% at Serotonin (5HT) reuptake. Besides, the % maximum possible antinociceptive effect at 10 mg/kg in the series with mouse (read-out: Activity % MPE) amounted to 21%.

As to `CC(=O)N(CCCc1ccccc1)C1CCC(C(c2ccccc2)N(C)C)CC1` (stereo not drawn) [compound 95, N-(4-((dimethylamino)(phenyl)methyl)cyclohexyl)-N-(3-phenylpropyl)acetamide hydrochloride], at human μ-opiate receptor, the inhibition at 1 µM turned out to be 95%. In addition, the Ki at human μ-opiate receptor came to 2.5 nM. Besides, the inhibition at 10 µM in series [1] (setting [4]) turned out to be 80%; on Serotonin (5HT) reuptake it was 66%. Moreover, the % maximum possible antinociceptive effect at 1 mg/kg in the series with mouse (dose 1 mg/kg (i.v.), read-out: Activity % MPE) is 100%.

Turning to `CN(C)C(c1ccccc1)C1CCC(NC(=O)NC2CCCCC2)CC1` (stereo not drawn) [compound 80, 1-cyclohexyl-3-(4-((dimethylamino)(phenyl)methyl)cyclohexyl)urea], the inhibition at 1 µM on human μ-opiate receptor (setting [2]) came out at 95%. For the same compound, the inhibitory constant (Ki) on human μ-opiate receptor came out at 20 nM; in series [1], 490 nM; on Serotonin (5HT) reuptake, 250 nM. Moreover, the inhibition at 10 µM (in series [1] (setting [3]); at Serotonin (5HT) reuptake) was 97% throughout. Moreover, the % maximum possible antinociceptive effect at 10 mg/kg in the series on mouse (read-out: Activity % MPE) turned out to be 59%.

As for `CN(C)C(c1ccccc1)C1CCC(NCc2ccccc2)CC1` (stereo not drawn) [compound 86, N-benzyl-4-((dimethylamino)(phenyl)methyl)cyclohexanamine hydrochloride], the inhibition at 1 µM at human μ-opiate receptor (setting [2]) was found to be 98%. Moreover, the Ki at human μ-opiate receptor is 3.8 nM. Besides, the inhibition at 10 µM in series [1] (setting [3]) was determined as 95%; at Serotonin (5HT) reuptake it was 88%. In addition, in the series on mouse (read-out: Activity % MPE), the % maximum possible antinociceptive effect at 21.5 mg/kg was determined as 100%.

Take `CC(Cc1c[nH]c2ccccc12)NC1CCC(C(c2ccccc2)N(C)C)CC1` (stereo not drawn) [compound 88, N-(1-(1H-indol-3-yl)propan-2-yl)-4-((dimethylamino)(phenyl)methyl)-cyclohexanamine hydrochloride]: on human μ-opiate receptor (setting [2]), the inhibition at 1 µM amounted to 99%. Further, the Ki at human μ-opiate receptor was found to be 2.4 nM. The results for the inhibition at 10 µM (in series [1] (setting [3]); at Serotonin (5HT) reuptake) were 84% and 88%, respectively. The % maximum possible antinociceptive effect at 21.5 mg/kg in the series on mouse (read-out: Activity % MPE) came to 90%.

For the compound `CN(C)C(c1ccccc1)C1CCC(NC(=O)Nc2ccccc2)CC1.Cl` (stereo not drawn) [compound 78, 1-(4-((dimethylamino)(phenyl)methyl)cyclohexyl)-3-phenylurea hydrochloride], the inhibition at 1 µM on human μ-opiate receptor (setting [2]) is 91%. The values for the inhibition constant Ki (at human μ-opiate receptor; in series [1]; on Serotonin (5HT) reuptake) were 54 nM, 290 nM and 160 nM, respectively. Further, the inhibition at 10 µM in series [1] (setting [3]) was determined as 98%; on Serotonin (5HT) reuptake, 87%. For the same compound, the median effective dose (ED50) with mouse (head prints (4.64-21.5)) is 8.94 mg/kg.

Take `CN(C)C(c1ccccc1)C1CCC(=NO)CC1` (stereo not drawn): the melting point lay in the range of 110 to 115 °C.

In the case of `CCCC(=O)N(Cc1ccccc1)C1CCC(C(c2ccccc2)N(C)C)CC1` (stereo not drawn) [compound 102, N-benzyl-N-(4-((dimethylamino)(phenyl)methyl)cyclohexyl)butyramide hydrochloride], the inhibition at 1 µM on human μ-opiate receptor is 94%. The inhibitory constant (Ki) was 1.5 nM at human μ-opiate receptor, 130 nM in series [1] and 450 nM on Serotonin (5HT) reuptake. In addition, the inhibition at 10 µM came to 92% in series [1] (setting [4]) and 85% on Serotonin (5HT) reuptake. The % maximum possible antinociceptive effect at 10 mg/kg in the series with mouse (read-out: Activity % MPE) stood at 82%.

With `CN(C)C(c1ccc(Cl)cc1)C1CCC(N)CC1` (stereo not drawn) [compound 23, 4-[(4-chlorophenyl)-dimethylamino-methyl]-cyclohexylamine], the inhibition at 1 µM at human μ-opiate receptor (setting [2]) came to 58%. Moreover, the inhibition at 10 µM in series [1] (setting [3]) is 97%; on Serotonin (5HT) reuptake, 64%.

Regarding `CN(C)C(c1ccc(F)cc1)C1CCC(CCCO)CC1` (stereo not drawn) [compound 137, 3-{4-[dimethylamino-(4-fluorophenyl)-methyl]-cyclohexyl}-propan-1-ol], at human μ-opiate receptor (setting [2]), the inhibition at 1 µM amounted to 13%. Also, the inhibition at 10 µM in series [1] (setting [3]) amounted to 93%; on Serotonin (5HT) reuptake it was 89%.

For the compound `COc1ccc(OC)c(C2(O)CCC(C(c3ccccc3)N(C)C)CC2)c1` (stereo not drawn) [compound 149, 1-(2,5-Dimethoxyphenyl)-4-((dimethylamino)(phenyl)methyl)cyclohexanol hydrochloride], the inhibition at 1 µM on human μ-opiate receptor (setting [2]) was determined as 82%. In addition, the values for the inhibition at 10 µM (in series [1] (setting [3]); at Serotonin (5HT) reuptake) were 75% and 85%, respectively.

Consider `CN(C)C(c1cccs1)C1CCC(=NO)CC1` (stereo not drawn), for which the melting point is 118 to 121 °C.

With `CN(C)C(c1ccc(F)cc1)C1CCC(CCO)CC1` (stereo not drawn) [compound 128, 2-{4-[dimethylamino-(4-fluorophenyl)-methyl]-cyclohexyl}-ethanol], the inhibition at 1 µM at human μ-opiate receptor (setting [2]) came to 18%. Moreover, the inhibition at 10 µM in series [1] (setting [3]) is 88%; at Serotonin (5HT) reuptake, 84%.

For `CN(C)C(c1ccccc1)C1CCC(CCN)CC1` (stereo not drawn) [compound 48], on human μ-opiate receptor (setting [2]), the “μ-Opioid receptor, % inhibition [1 μM]” value stood at 67%. Moreover, the “NA reuptake, % inhibition [10 μM]” value in series [1] (10 μM, rat brain synaptosomes (hypothalamus)) is on record as 100%. Further, on Serotonin (5HT) reuptake (10 μM, rat brain synaptosomes), the “Serotonin reuptake, % inhibition [10 μM]” value is given as 95%.
